From US7776912B2, “Acetals of nepetalic acid and method of preparation” (E.I. du Pont de Nemours and Company, priority 2006, dated 2010)

Test system: Aedes aegypti mosquitoes
Assay: in vitro Gupta box landing assay (insect repellency)
Assay type: in vivo
Details: 1% (w/v) in IPA, mean of three replicates; for % Mean repellency: 25 μl applied to Baudruche membrane over bovine blood, landings recorded over 20 min, (C−T)/C×100 vs IPA control well; for Mean time to first landing / Mean number of total landings: 25 μl on membrane; for Mean time to first landing: about 250 female Aedes aegypti; for Mean number of total landings: recorded at 2 min intervals over 20 min
Description: The products of Examples 1-6 were evaluated for the insect repellency against Aedes aegypti mosquitoes in the in vitro Gupta box landing assay. In this method, a chamber contained 5 wells, each covered by a Baudruche (animal intestine) membrane. Each well was filled with bovine blood, containing sodium citrate (to prevent clotting) and ATP (72 mg ATP disodium salt per 26 ml of blood), and heated to 37° C. A volume of 25 μl of isopropyl alcohol(IPA) containing one test specimen, or DEET as a control, was applied to each membrane. The concentrations were all 1% w/v in IPA except where otherwise indicated. The control was a membrane surface treated with a 1% solution of DEET.
After 5 min, approximately 250 4-day-old female Aedes aegypti mosquitoes were introduced into the chamber. The number of mosquitoes probing the membranes for each treatment was recorded at 2 min intervals over 20 min. Each datum represents the mean of three replicate experiments.
C=the total number of landings on the IPA control well, and
T=the total number of landings on the test solution well.
The % mean repellencies at 1% (w/v) are depicted in Table 2 in addition to mean time to first landing, and mean number of total landings for the nepetalic acid acetals of Examples 1-6 and for DEET as a control.

With `CCN(CC)C(=O)c1cccc(C)c1` [DEET, N,N-diethyltoluamide, reference compound] as the molecule, how does the “% Mean repellency” value read?
The value was 68.60%.

And the “Mean time to first landing” value?
Its value is 3.5 min.

And the “Mean number of total landings” value?
Its value is 17.7.

Which “% Mean repellency” value does the source give for `COC1OC(=O)[C@H]2[C@H](CC[C@@H]2C)C1C` (stereo partly drawn) [Example 1, (4aR,7S,7aR)-3-methoxy-4,7-dimethylhexahydrocyclopenta[c]pyran-1(3H)-one] here?
The value was 79.30%.

And the “Mean time to first landing” value?
The value was 3.2 min.

What about the “Mean number of total landings” value of the same molecule?
The value was 12.2.

What does the source list for `CCOC1OC(=O)[C@H]2[C@H](CC[C@@H]2C)C1C` (stereo partly drawn) [Example 2, (4aR,7S,7aR)-3-ethoxy-4,7-dimethylhexahydrocyclopenta[c]pyran-1(3H)-one]?
% Mean repellency: 52.40%; Mean time to first landing: 5.2 min; Mean number of total landings: 26.4

Which “% Mean repellency” value does the source give for `CCCOC1OC(=O)[C@H]2[C@H](CC[C@@H]2C)C1C` (stereo partly drawn) [Example 3, (4aR,7S,7aR)-3-n-propoxy-4,7-dimethylhexahydrocyclopenta[c]pyran-1(3H)-one] here?
The value was 89.10%.

And the “Mean time to first landing” value?
Its value is 11.6 min.

What about the “Mean number of total landings” value of the same molecule?
The value was 5.2.

With `CC(C)OC1OC(=O)[C@H]2[C@H](CC[C@@H]2C)C1C` (stereo partly drawn) [Example 4, (4aR,7S,7aR)-3-isopropoxy-4,7-dimethylhexahydrocyclopenta[c]pyran-1(3H)-one] as the molecule, how does the “% Mean repellency” value read?
Its value is 73.20%.

And the “Mean time to first landing” value?
The value was 2.8 min.

And the “Mean number of total landings” value?
The value was 30.6.

Which “% Mean repellency” value does the source give for `CCCCOC1OC(=O)[C@H]2[C@H](CC[C@@H]2C)C1C` (stereo partly drawn) [Example 5, (4aR,7S,7aR)-3-n-butoxy-4,7-dimethylhexahydrocyclopenta[c]pyran-1(3H)-one] here?
The value was 17.80%.

And the “Mean time to first landing” value?
Its value is 2.8 min.

What about the “Mean number of total landings” value of the same molecule?
The value was 33.8.

What does the source list for `CC(C)COC1OC(=O)[C@H]2[C@H](CC[C@@H]2C)C1C` (stereo partly drawn) [Example 6, (4aR,7S,7aR)-3-isobutoxy-4,7-dimethylhexahydrocyclopenta[c]pyran-1(3H)-one]?
% Mean repellency: 20.40%; Mean time to first landing: 2.0 min; Mean number of total landings: 91.6
